From ChEMBL document CHEMBL5360545, “Multitargeted drug design strategy for discovery of short-peptide-based HIV-1 entry inhibitors with high potency” (Eur J Med Chem, 2023)
The source made the active and inactive calls. The rule behind the calls is not given here. Side chains are listed from the residue outwards. Peptide text beside a SMILES is read from it. * marks the point of attachment. X1 = CC(=O)N1CCC(C(=O)N(CCCN2CCC(Cc3ccc(C(=O)*)cc3)CC2)c2ccc(C)c(Cl)c2)CC1; PEG12 = NCCOCCOCCOCCOCCOCCOCCOCCOCCOCCOCCOCCOCCC(=O)O

Legend:
[1] = test system: Human immunodeficiency virus 1; test: Antiviral activity against HIV-1 clinical isolate R5-J32228M4 infected in human CEMx174 5.25M7 cells assessed as reduction in p24 antigen level measured after 4 days by ELISA; format: functional, organism-based; settings: Human immunodeficiency virus 1, clinical isolate R5-J32228M4, CEMx174 5.25M7, 96 h
[2] = molecular target: C-C chemokine receptor type 5 (Homo sapiens, UniProt P51681); test: Antagonist activity at CCR5 (unknown origin) expressed in HEK293 cells co-expressing Galpha16 assessed as intracellular calcium change incubated for 60 mins by Fluo-4 AM calcium flux based FLIPR assay; format: functional, cell-based
[3] = Proteolytic stability in rat kidney incubated upto 240 mins by RP-UHPLC analysis; format: ADME, tissue-based; settings: 4 h
[4] = Proteolytic stability in rat liver assessed as parent compound remaining incubated for 4 hrs by RP-UHPLC analysis; format: ADME, tissue-based; settings: read-out: Stability
[5] = Proteolytic stability in rat plasma assessed as parent compound remaining incubated for 4 hrs by RP-UHPLC analysis; format: ADME, cell-free; settings: read-out: Stability
[6] = molecular target: Envelope glycoprotein gp160 (Human immunodeficiency virus 1) (UniProt Q72502); test: Binding affinity to HIV1 GP41 using GP41 NHR derived N39 peptide assessed as binding constant by isothermal titration calorimetry
[7] = test system: Human immunodeficiency virus 1; test: Antiviral activity against HIV-1 clinical isolate 97 TH-NP1525 infected in human CEMx174 5.25M7 cells assessed as reduction in p24 antigen level measured after 4 days by ELISA; format: functional, organism-based; settings: Human immunodeficiency virus 1, clinical isolate 97 TH-NP1525, CEMx174 5.25M7, 96 h
[8] = test system: Human immunodeficiency virus 1; test: Antiviral activity against HIV-1 Bal-R5 infected in human CEMx174 5.25M7 cells assessed as reduction in p24 antigen level measured after 4 days by ELISA; format: functional, organism-based; settings: Human immunodeficiency virus 1, Bal-R5, CEMx174 5.25M7, 96 h
[9] = test system: Human immunodeficiency virus 1; test: Antiviral activity against HIV-1 clinical isolate R5-91US-4 infected in human CEMx174 5.25M7 cells assessed as reduction in p24 antigen level measured after 4 days by ELISA; format: functional, organism-based; settings: Human immunodeficiency virus 1, clinical isolate R5-91US-4, CEMx174 5.25M7, 96 h
[10] = molecular target: Envelope glycoprotein gp160 (Human immunodeficiency virus 1) (UniProt Q72502); test: Binding affinity to HIV1 GP41 using GP41 NHR derived N39 peptide assessed as melting temperature incubated for 30 mins by circular dichroism spectroscopy
[11] = test system: Human immunodeficiency virus 1; test: Antiviral activity against HIV-1 clinical isolate X4-89BZ167 infected in human CEMx174 5.25M7 cells assessed as reduction in p24 antigen level measured after 4 days by ELISA; format: functional, organism-based; settings: Human immunodeficiency virus 1, clinical isolate X4-89BZ167, CEMx174 5.25M7, 96 h
[12] = molecular target: Envelope glycoprotein gp160 (Human immunodeficiency virus 1) (UniProt Q72502); test: Binding affinity to HIV1 GP41 using GP41 NHR derived N39 peptide assessed as change in entropy by isothermal titration calorimetry
[13] = molecular target: Envelope glycoprotein gp160 (Human immunodeficiency virus 1) (UniProt Q72502); test: Binding affinity to HIV1 GP41 using GP41 NHR derived N39 peptide at 100 uM incubated for 30 mins by PAGE gel electrophoresis analysis
[14] = molecular target: Envelope glycoprotein gp160 (Human immunodeficiency virus 1) (UniProt Q72502); test: Binding affinity to HIV1 GP41 using GP41 NHR derived N39 peptide assessed as change in enthalpy by isothermal titration calorimetry
[15] = test system: Human immunodeficiency virus 1; test: Antiviral activity against HIV-1 clinical isolate X4-92UG024 infected in human CEMx174 5.25M7 cells assessed as reduction in p24 antigen level measured after 4 days by ELISA; format: functional, organism-based; settings: Human immunodeficiency virus 1, clinical isolate X4-92UG024, CEMx174 5.25M7, 96 h

C-C chemokine receptor type 5, sequence (P51681 whole entry): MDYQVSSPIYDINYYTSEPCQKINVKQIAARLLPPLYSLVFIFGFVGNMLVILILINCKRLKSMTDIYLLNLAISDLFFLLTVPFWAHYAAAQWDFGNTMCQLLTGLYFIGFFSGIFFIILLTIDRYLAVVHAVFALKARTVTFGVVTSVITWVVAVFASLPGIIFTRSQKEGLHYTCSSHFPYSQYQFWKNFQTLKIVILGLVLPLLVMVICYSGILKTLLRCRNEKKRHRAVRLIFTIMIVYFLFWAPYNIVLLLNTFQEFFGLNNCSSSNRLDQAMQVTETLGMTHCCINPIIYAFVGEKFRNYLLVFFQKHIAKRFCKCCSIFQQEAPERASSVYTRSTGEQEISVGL

Compound: CC[C@H](C)[C@H](NC(C)=O)C(=O)N[C@@H](CCC(=O)O)C(=O)N[C@@H](CCC(=O)O)C(=O)N[C@@H](CC(C)C)C(=O)N[C@H](C(=O)N[C@@H](CCCNC(=N)N)C(=O)N[C@@H](C)C(=O)N[C@@H](C)C(=O)N[C@@H](CCC(N)=O)C(=O)N[C@@H](CCC(=O)O)C(=O)N[C@@H](CCC(N)=O)C(=O)N[C@@H](CCC(N)=O)C(=O)N[C@@H](CCCNC(=N)N)C(=O)N[C@@H](CCCCN)C(=O)N[C@@H](CC(N)=O)C(=O)N[C@@H](CCC(=O)O)C(=O)N[C@@H](CCC(=O)O)C(=O)N[C@@H](C)C(=O)N[C@@H](CC(C)C)C(=O)N[C@@H](CCCNC(=N)N)C(=O)N[C@@H](CCC(=O)O)C(=O)N[C@@H](CC(C)C)C(=O)N[C@@H](CCCCNC(=O)CCOCCOCCOCCOCCOCCOCCOCCOCCOCCOCCOCCOCCNC(=O)c1ccc(CC2CCN(CCCN(C(=O)C3CCN(C(C)=O)CC3)c3ccc(C)c(Cl)c3)CC2)cc1)C(N)=O)[C@@H](C)CC (Ac-IEELIRAAQEQQRKNEEALRELK([PEG12-X1])-NH2)
- EC50 [1]: 16.2 nM
- IC50 [2]: 19.2 nM
- Stability [3]: Stable
- remaining at 4 h [4]: > 72%
- remaining at 4 h [5]: 100%
- K [6]: 2.1 10^5/M
- EC50 [7]: 0.33 nM
- EC50 [8]: 0.09 nM
- EC50 [9]: 1.79 nM
- Tm [10]: 56 °C
- EC50 [11]: 2.75 nM
- deltaS [12]: -23.2 cal/mol/deg
- Activity [13]: Active
- deltaH [14]: -1.4 10^4cal/mol
- EC50 [15]: 1.21 nM
